Test results published in patent US20260085067A1, “CYCLIC SULFONAMIDE RIBONUCLEOTIDE REDUCTASE (RNR) INHIBITORS AND USES THEREOF” (Boundless Bio, Inc., priority 2022, published 2026).

Columns and labels:
[1] = test system: pCHK1 (S345) in Colo320 DM cells; experiment: Alphalisa assay, detection of pCHK1 (S345) in Colo320 DM cells; type: cell-based, human; conditions: Homo sapiens, COLO 320DM, compound overnight (approximately 16 hours)
Method in brief: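 Phospho-CHK1 (S345) read by AlphaLisa SureFire in lysates of human colorectal Colo320 DM cells. Compound treatment ran overnight (~16 h, 37 °C, DMSO <0.5%) on cells seeded the day before.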

RNR (RNR1:RNR2 1:1) = target: T1, RNR (RNR1:RNR2 1:1) (Homo sapiens, UniProt P23921); experiment: RNR enzyme activity, rapid-fire mass spectrometry (RF/MS) assay; type: biochemical; conditions: [RNR] 50 nM, 1:1 RNR1:RNR2; CDP 5 μM; ATP 1 mM; 37° C., 45 min; compounds screened up to 50 μM
T1 sequence (P23921 1-792): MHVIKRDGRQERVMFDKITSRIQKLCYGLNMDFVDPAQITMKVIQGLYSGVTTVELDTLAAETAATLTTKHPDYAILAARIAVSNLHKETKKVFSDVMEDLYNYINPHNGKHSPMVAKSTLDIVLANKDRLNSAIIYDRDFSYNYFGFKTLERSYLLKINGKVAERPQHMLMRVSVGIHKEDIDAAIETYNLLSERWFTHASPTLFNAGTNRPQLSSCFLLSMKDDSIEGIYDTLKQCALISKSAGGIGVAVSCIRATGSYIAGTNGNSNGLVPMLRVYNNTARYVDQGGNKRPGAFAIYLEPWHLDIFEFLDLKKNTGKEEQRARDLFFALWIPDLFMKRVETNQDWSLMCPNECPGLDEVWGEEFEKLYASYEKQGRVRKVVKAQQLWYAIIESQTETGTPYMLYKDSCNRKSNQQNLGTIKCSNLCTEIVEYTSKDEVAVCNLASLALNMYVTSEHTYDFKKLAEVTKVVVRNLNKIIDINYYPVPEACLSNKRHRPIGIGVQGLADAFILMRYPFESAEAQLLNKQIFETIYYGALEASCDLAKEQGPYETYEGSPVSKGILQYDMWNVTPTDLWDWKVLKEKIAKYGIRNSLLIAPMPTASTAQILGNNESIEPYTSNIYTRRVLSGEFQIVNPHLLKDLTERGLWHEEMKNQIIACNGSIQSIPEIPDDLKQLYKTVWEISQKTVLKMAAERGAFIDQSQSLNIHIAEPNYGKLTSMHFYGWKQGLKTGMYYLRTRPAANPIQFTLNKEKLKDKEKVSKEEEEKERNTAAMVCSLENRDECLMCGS
Method in brief: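 Human RNR (50 nM final, RNR1:RNR2 1:1) pre-incubated 15 min at room temperature, then reacted 45 min at 37 °C with 5 μM CDP and 1 mM ATP, no NADPH. Reaction quenched with 6% HCOOH; product quantified by rapid-fire mass spectrometry.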

IC50 [1] [µM]	IC50 (RNR (RNR1:RNR2 1:1)) [µM]	Compound
≤ 1	< 0.02	Cc1ccc(F)c([C@@H](C)[C@@H](c2n[nH]c(=O)o2)N2CN(C3COC3)c3cc(Cl)ccc3S2(=O)=O)c1C [Example 42, 5-((1S,2R)-1-(6-chloro-4-(oxetan-3-yl)-1,1-dioxido-3,4-dihydro-2H-benzo[e][1,2,4]thiadiazin-2-yl)-2-(6-fluoro-2,3-dimethylphenyl)propyl)-1,3,4-oxadiazol-2 (3H)-one]
≤ 1	< 0.02	COCCN1CN([C@H](c2n[nH]c(=O)o2)[C@H](C)c2c(F)ccc(C)c2C)S(=O)(=O)c2ccc(Cl)cc21 [Example 45, 5-((1S,2R)-1-(6-chloro-4-(2-methoxyethyl)-1,1-dioxido-3,4-dihydro-2H-benzo[e][1,2,4]thiadiazin-2-yl)-2-(6-fluoro-2,3-dimethylphenyl)propyl)-1,3,4-oxadiazol-2 (3H)-one]
≤ 1	< 0.02	Cc1ccc(F)c([C@@H](C)[C@@H](c2n[nH]c(=O)o2)N2CN(CC3CCOC3)c3cc(Cl)ccc3S2(=O)=O)c1C (stereo partly drawn) [Example 49, 5-((1S,2R)-1-(6-chloro-1,1-dioxido-4-((tetrahydrofuran-3-yl)methyl)-3,4-dihydro-2H-benzo[e][1,2,4]thiadiazin-2-yl)-2-(6-fluoro-2,3-dimethylphenyl)propyl)-1,3,4-oxadiazol-2 (3H)-one]
≤ 1	< 0.02	Cc1ccc(F)c([C@@H](C)[C@@H](c2n[nH]c(=O)o2)N2CN(C3CCCN(C)C3)c3cc(Cl)ccc3S2(=O)=O)c1C (stereo partly drawn) [Example 51, 5-((1S,2R)-1-(6-chloro-4-(1-methylpiperidin-3-yl)-1,1-dioxido-3,4-dihydro-2H-benzo[e][1,2,4]thiadiazin-2-yl)-2-(6-fluoro-2,3-dimethylphenyl)propyl)-1,3,4-oxadiazol-2 (3H)-one]
≤ 1	< 0.02	Cc1ccc(F)c([C@@H](C)[C@@H](c2n[nH]c(=O)o2)N2CN(C[C@H]3CCCO3)c3cc(Cl)ccc3S2(=O)=O)c1C [Example 52, 5-((1S,2R)-1-(6-chloro-1,1-dioxido-4-(((R)-tetrahydrofuran-2-yl)methyl)-3,4-dihydro-2H-benzo[e][1,2,4]thiadiazin-2-yl)-2-(6-fluoro-2,3-dimethylphenyl)propyl)-1,3,4-oxadiazol-2 (3H)-one]
10 to 50	0.02 to 0.1	Cc1ccc(F)c([C@@H](C)[C@@H](c2n[nH]c(=O)o2)N2CN(C3CNC3)c3cc(Cl)ccc3S2(=O)=O)c1C [Example 57, 5-((1S,2R)-1-(4-(azetidin-3-yl)-6-chloro-1,1-dioxido-3,4-dihydro-2H-benzo[e][1,2,4]thiadiazin-2-yl)-2-(6-fluoro-2,3-dimethylphenyl)propyl)-1,3,4-oxadiazol-2 (3H)-one]
10 to 50	0.02 to 0.1	Cc1ccc(F)c([C@@H](C)[C@@H](c2n[nH]c(=O)o2)N2CN([C@@H]3CCNC3)c3cc(Cl)ccc3S2(=O)=O)c1C [Example 58, 5-((1S,2R)-1-(6-chloro-1,1-dioxido-4-((R)-pyrrolidin-3-yl)-3,4-dihydro-2H-benzo[e][1,2,4]thiadiazin-2-yl)-2-(6-fluoro-2,3-dimethylphenyl)propyl)-1,3,4-oxadiazol-2 (3H)-one]
5 to 10	< 0.02	Cc1ccc(F)c([C@@H](C)[C@@H](c2n[nH]c(=O)o2)N2CN([C@H]3CCNC3)c3cc(Cl)ccc3S2(=O)=O)c1C [Example 59, 5-((1S,2R)-1-(6-chloro-1,1-dioxido-4-((S)-pyrrolidin-3-yl)-3,4-dihydro-2H-benzo[e][1,2,4]thiadiazin-2-yl)-2-(6-fluoro-2,3-dimethylphenyl)propyl)-1,3,4-oxadiazol-2 (3H)-one]
≤ 1	< 0.02	Cc1ccc(F)c([C@@H](C)[C@@H](c2n[nH]c(=O)o2)N2CN(C[C@@H]3CCCO3)c3cc(Cl)ccc3S2(=O)=O)c1C [Example 62, 5-((1S,2R)-1-(6-chloro-1,1-dioxido-4-(((S)-tetrahydrofuran-2-yl)methyl)-3,4-dihydro-2H-benzo[e][1,2,4]thiadiazin-2-yl)-2-(6-fluoro-2,3-dimethylphenyl)propyl)-1,3,4-oxadiazol-2 (3H)-one]

Further lines, the compound ahead of its results:

Compound	IC50 [1] [µM]	IC50 (RNR (RNR1:RNR2 1:1)) [µM]
Cc1ccc(F)c([C@@H](C)[C@@H](c2n[nH]c(=O)o2)N2CN(CCN(C)C)c3cc(Cl)ccc3S2(=O)=O)c1C [Example 38, 5-((1S,2R)-1-(6-chloro-4-(2-(dimethylamino)ethyl)-1,1-dioxido-3,4-dihydro-2H-benzo[e][1,2,4]thiadiazin-2-yl)-2-(6-fluoro-2,3-dimethylphenyl)propyl)-1,3,4-oxadiazol-2 (3H)-one]	≤ 1	< 0.02
Cc1ccc(F)c([C@H](C)[C@@H](c2n[nH]c(=O)o2)N2CN(C)c3cc(Cl)cc(C(=O)N(C)C)c3S2(=O)=O)c1C [Example 39]	> 50	10 to 100
Cc1ccc(F)c(C(C)[C@@H](c2n[nH]c(=O)o2)N2CCOc3c(ccc(Cl)c3C(C)(C)O)S2(=O)=O)c1C (stereo partly drawn) [Example 40, 5-((1S)-1-(7-chloro-6-(2-hydroxypropan-2-yl)-1,1-dioxido-3,4-dihydro-2H-benzo[b][1,4,5]oxathiazepin-2-yl)-2-(6-fluoro-2,3-dimethylphenyl)propyl)-1,3,4-oxadiazol-2 (3H)-one]	5 to 10	< 0.02
Cc1ccc(F)c([C@@H](C)[C@@H](c2n[nH]c(=O)o2)N2COc3cc(Cl)cc(C(=O)N(C)C)c3S2(=O)=O)c1C [Example 41, 6-chloro-2-((1S,2R)-2-(6-fluoro-2,3-dimethylphenyl)-1-(5-oxo-4,5-dihydro-1,3,4-oxadiazol-2-yl)propyl)-N,N-dimethyl-2,3-dihydrobenzo[e][1,4,3]oxathiazine-8-carboxamide 1,1-dioxide]	> 50	0.1 to 1
Cc1ccc(F)c([C@@H](C)[C@@H](c2n[nH]c(=O)o2)N2CN(C(=O)C3CC3)c3cc(Cl)ccc3S2(=O)=O)c1C [Example 46, 5-((1S,2R)-1-(6-chloro-4-(cyclopropanecarbonyl)-1,1-dioxido-3,4-dihydro-2H-benzo[e][1,2,4]thiadiazin-2-yl)-2-(6-fluoro-2,3-dimethylphenyl)propyl)-1,3,4-oxadiazol-2 (3H)-one]	≤ 1	< 0.02
Cc1ccc(F)c([C@@H](C)[C@@H](c2n[nH]c(=O)o2)N2CN(C3CCN(C)CC3)c3cc(Cl)ccc3S2(=O)=O)c1C [Example 47, 5-((1S,2R)-1-(6-chloro-4-(1-methylpiperidin-4-yl)-1,1-dioxido-3,4-dihydro-2H-benzo[e][1,2,4]thiadiazin-2-yl)-2-(6-fluoro-2,3-dimethylphenyl)propyl)-1,3,4-oxadiazol-2 (3H)-one]	1 to 5	< 0.02
Cc1ccc(F)c([C@@H](C)[C@@H](c2n[nH]c(=O)o2)N2CCOc3c(ccc(Cl)c3CN(C)C)S2(=O)=O)c1C [Example 55, 5-((1S,2R)-1-(7-chloro-6-((dimethylamino)methyl)-1,1-dioxido-3,4-dihydro-2H-benzo[b][1,4,5]oxathiazepin-2-yl)-2-(6-fluoro-2,3-dimethylphenyl)propyl)-1,3,4-oxadiazol-2 (3H)-one]	1 to 5	< 0.02
CC(=O)N1CN([C@H](c2n[nH]c(=O)o2)[C@H](C)c2c(F)ccc(C)c2C)S(=O)(=O)c2ccc(Cl)cc21 [Example 56, 5-((1S,2R)-1-(4-acetyl-6-chloro-1,1-dioxido-3,4-dihydro-2H-benzo[e][1,2,4]thiadiazin-2-yl)-2-(6-fluoro-2,3-dimethylphenyl)propyl)-1,3,4-oxadiazol-2 (3H)-one]	1 to 5	< 0.02
Cc1ccc(F)c([C@@H](C)[C@@H](c2n[nH]c(=O)o2)N2CN(C)c3c(ccc(Cl)c3CN3CCCCC3)S2(=O)=O)c1C [Example 61, 5-((1S,2R)-1-(6-chloro-4-methyl-1,1-dioxido-5-(piperidin-1-ylmethyl)-3,4-dihydro-2H-benzo[e][1,2,4]thiadiazin-2-yl)-2-(6-fluoro-2,3-dimethylphenyl)propyl)-1,3,4-oxadiazol-2 (3H)-one]	10 to 50	0.1 to 1
COCCN1CN([C@H](c2n[nH]c(=O)o2)[C@H](C)c2c(F)ccc(C)c2C)S(=O)(=O)c2ccc(Cl)nc21 [Example 63, 5-((1S,2R)-1-(6-chloro-4-(2-methoxyethyl)-1,1-dioxido-3,4-dihydro-2H-pyrido[2,3-e][1,2,4]thiadiazin-2-yl)-2-(6-fluoro-2,3-dimethylphenyl)propyl)-1,3,4-oxadiazol-2 (3H)-one]	≤ 1	< 0.02
